What was measured:
[1] = AUC (0 to t) in Sprague-Dawley rat at 10 mg/kg, po measured up to 24 hrs by LC-MS/MS analysis; format: ADME, organism-based; design: route oral, dose 10 mg/kg, time <=24; details: in vivo
[2] = Half life in Sprague-Dawley rat at 1 mg/kg, iv measured up to 24 hrs by LC-MS/MS analysis; format: ADME, organism-based; details: in vivo
[3] = Tmax in Sprague-Dawley rat at 10 mg/kg, po measured up to 24 hrs by LC-MS/MS analysis; format: ADME, organism-based; details: in vivo
[4] = molecular target: Isocitrate dehydrogenase [NADP], mitochondrial (Homo sapiens, UniProt P48735, R140Q); assay: Inhibition of IDH2 R140Q mutant (unknown origin) assessed as reduction in NADPH consumption using alpha-ketoglutarate and NADPH as substrate preincubated with enzyme for 15 mins followed by substrate addition by fluorescence based assay
Chain of Isocitrate dehydrogenase [NADP], mitochondrial (Homo sapiens, UniProt P48735, R140Q) (P48735 40-452 R140Q limits assumed): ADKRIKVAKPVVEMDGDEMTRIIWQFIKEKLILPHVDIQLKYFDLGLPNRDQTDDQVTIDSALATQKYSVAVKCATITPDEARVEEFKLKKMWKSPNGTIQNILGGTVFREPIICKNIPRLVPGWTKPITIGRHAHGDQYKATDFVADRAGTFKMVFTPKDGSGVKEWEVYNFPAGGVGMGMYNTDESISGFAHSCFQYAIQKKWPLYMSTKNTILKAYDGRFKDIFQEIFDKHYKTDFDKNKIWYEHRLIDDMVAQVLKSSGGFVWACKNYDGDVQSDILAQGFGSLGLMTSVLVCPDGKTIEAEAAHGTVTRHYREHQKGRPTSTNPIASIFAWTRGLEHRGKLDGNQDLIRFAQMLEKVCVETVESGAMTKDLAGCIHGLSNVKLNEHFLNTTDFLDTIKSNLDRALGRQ

[5] = AUC (0 to infinity) in Sprague-Dawley rat at 1 mg/kg, iv measured up to 24 hrs by LC-MS/MS analysis; format: ADME, organism-based; design: route intravenous, dose 1 mg/kg, time <=24; details: in vivo
[6] = AUC (0 to infinity) in Sprague-Dawley rat at 10 mg/kg, po measured up to 24 hrs by LC-MS/MS analysis; format: ADME, organism-based; design: route oral, dose 10 mg/kg, time <=24; details: in vivo
[7] = Oral bioavailability Sprague-Dawley rat at 10 mg/kg measured up to 24 hrs by LC-MS/MS analysis; format: ADME, organism-based; details: in vivo
[8] = AUC (0 to t) in Sprague-Dawley rat at 1 mg/kg, iv measured up to 24 hrs by LC-MS/MS analysis; format: ADME, organism-based; design: route intravenous, dose 1 mg/kg, time <=24; details: in vivo
[9] = Cmax in Sprague-Dawley rat at 1 mg/kg, iv measured up to 24 hrs by LC-MS/MS analysis; format: ADME, organism-based; design: route intravenous, dose 1 mg/kg, time <=24; details: in vivo
[10] = molecular target: Isocitrate dehydrogenase [NADP], mitochondrial (Homo sapiens, UniProt P48735, R172K); assay: Inhibition of IDH2 R172K mutant (unknown origin) assessed as reduction in NADPH consumption using alpha-ketoglutarate and NADPH as substrate preincubated with enzyme for 15 mins followed by substrate addition by fluorescence based assay
Chain of Isocitrate dehydrogenase [NADP], mitochondrial (Homo sapiens, UniProt P48735, R172K) (P48735 40-452 R172K limits assumed): as the sequence (P48735 40-452 R140Q limits assumed) above, with Q101R, R133K counted along it

[11] = MRT (0 to t) in Sprague-Dawley rat at 1 mg/kg, iv measured upto 24 hrs by LC-MS/MS analysis; format: ADME, organism-based; details: in vivo
[12] = Half life in Sprague-Dawley rat at 10 mg/kg, po measured up to 24 hrs by LC-MS/MS analysis; format: ADME, organism-based; details: in vivo
[13] = Cmax in Sprague-Dawley rat at 10 mg/kg, po measured up to 24 hrs by LC-MS/MS analysis; format: ADME, organism-based; design: route oral, dose 10 mg/kg, time <=24; details: in vivo
[14] = MRT (0 to t) in Sprague-Dawley rat at 10 mg/kg, po measured upto 24 hrs by LC-MS/MS analysis; format: ADME, organism-based; details: in vivo

AUC(0-t) at 24 h [1]: 2700 ng·h/mL | t1/2 [2]: 0.22 h | Tmax [3]: 1.33 h | IC50 [4]: 60.9 nM | AUC [5]: 1372.5 ng·h/mL | AUC(0-inf) [6]: 2750 ng·h/mL | bioavailability [7]: 19.8% | AUC(0-t) at 24 h [8]: 1370 ng·h/mL | Cmax [9]: 1255.13 ng/mL | IC50 [10]: 78.5 nM | MRT(t) [11]: 2.4 h | half-life [12]: 6.63 h | Cmax [13]: 237 ng/mL | MRT last at 24 h [14]: 6.03 h
Compound: CS(=O)(=O)O.FC(F)(F)c1cc2cc(c1)Nc1nc(nc(-c3cccc(C(F)(F)F)n3)n1)NCCCCCC2

From ChEMBL document CHEMBL4706511, “Structure-based design, synthesis and bioactivity evaluation of macrocyclic inhibitors of mutant isocitrate dehydrogenase 2 (IDH2) displaying activity in acute myeloid leukemia cells” (Eur J Med Chem, 2020)
